This test concerns the target T1, A2AR (hADORA2A-HEK293 cells) (Homo sapiens, UniProt P29274).
T1 construct: expressed in transfected cells; host or cells: HEK293 (hADORA2A-HEK293)
The test can be described thus: functional cAMP production assay (NECA-stimulated cAMP production, TR-FRET). The test is classed as cell-based. The conditions noted are these: inhibition of NECA (EC80)-stimulated cAMP production in A2AR-expressing HEK293 cells; read-out: A2AR Potency. On the procedure:
The antagonistic activities of the triazolotriazine derivatives of the present invention were measured in a functional cAMP production assay. The assay consists of NECA stimulation of cAMP production and its inhibition by A2AR antagonists in A2AR-expressing HEK293 cells (hADORA2A-HEK293). All cells were cultured in complete medium at 37° C. in 5% CO2. The cells were detached with pancreatin and collected at 200 g for 5 min. After resuspending the cells in fresh complete medium, the cell viability is counted using the trypan blue exclusion method. […] After the cells were diluted with Hank's buffered saline solution containing HEPES (5 mM), BSA stabilizer (0.1%) and […] Rolipram (10 μM), cells were loaded into white opaque 384-well plates (˜500 cells/well, 10 μl/well) and incubated with test compound at a suitable concentration range (11 concentrations) for 20 min at room temperature. Then the A2A receptor agonist NECA (final concentration=EC80, which was determined in the same experiment slightly earlier) was added to the sample and the mixture was incubated again for 30 min at 37° C. […] The inhibition rate (%) was calculated according to the following formula. The IC50 values were calculated from concentration−inhibition (%) curves after log transformation.
Background: Cyclic AMP is a second messenger, typically raised through Gs and lowered through Gi signalling.
T1 sequence (P29274 whole entry): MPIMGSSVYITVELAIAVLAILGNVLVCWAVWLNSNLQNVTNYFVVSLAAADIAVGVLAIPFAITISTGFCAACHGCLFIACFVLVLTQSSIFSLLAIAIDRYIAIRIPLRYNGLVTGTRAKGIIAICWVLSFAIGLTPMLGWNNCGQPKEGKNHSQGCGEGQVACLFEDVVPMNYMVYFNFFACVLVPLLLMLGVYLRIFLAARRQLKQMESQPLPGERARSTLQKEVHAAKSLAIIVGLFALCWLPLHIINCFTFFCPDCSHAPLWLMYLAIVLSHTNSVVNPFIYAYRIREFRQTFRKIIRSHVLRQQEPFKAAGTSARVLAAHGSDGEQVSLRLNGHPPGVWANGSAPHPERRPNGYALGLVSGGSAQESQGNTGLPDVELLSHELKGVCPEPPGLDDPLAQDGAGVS
As for `CNC(=O)c1ccc(CCNc2nc(N)n3nc(-c4ccco4)nc3n2)cc1` [Example 35, 4-(2-(7-Amino-2-(furan-2-yl)-[1,2,4]triazolo[1,5-a][1,3,5]triazin-5-ylamino)ethyl)-N-methylbenzamide], the IC50 was 0.0138 µM.
As for `Nc1nc(NCCc2ccc(C(=O)NCCN3CCCC3)cc2)nc2nc(-c3ccco3)nn12` [Example 11, 4-(2-((7-Amino-2-(furan-2-yl)-[1,2,4]triazolo[1,5-a][1,3,5]triazin-5-yl)amino)ethyl)-N-(2-(pyrrolidin-1-yl)ethyl)benzamide], the figure is 0.0434 µM; as for `CC(C)(CO)NC(=O)c1ccc(CCNc2nc(N)n3nc(-c4ccco4)nc3n2)cc1` [Example 43, 4-(2-(7-Amino-2-(furan-2-yl)-[1,2,4]triazolo[1,5-a][1,3,5]triazin-5-ylamino)ethyl)-N-(1-hydroxy-2-methylpropan-2-yl)benzamide], 0.0171 µM.
As to `CC(C)N(C)C(=O)c1ccc(CCNc2nc(N)n3nc(-c4ccco4)nc3n2)cc1` [Example 42, 4-(2-(7-Amino-2-(furan-2-yl)-[1,2,4]triazolo[1,5-a][1,3,5]triazin-5-ylamino)ethyl)-N-isopropyl-N-methylbenzamide], the IC50 is 0.0193 µM.
As for `Nc1nc(NCCc2ccc(C(=O)NCCN3CCOCC3)cc2)nc2nc(-c3ccco3)nn12` [Example 12, 4-(2-((7-Amino-2-(furan-2-yl)-[1,2,4]triazolo[1,5-a][1,3,5]triazin-5-yl)amino)ethyl)-N-(2-morpholinoethyl)benzamide], the figure is 0.0271 µM; as for `CN1CCN(CCNC(=O)c2ccc(CCNc3nc(N)n4nc(-c5ccco5)nc4n3)cc2)CC1` [Example 13, 4-(2-((7-Amino-2-(furan-2-yl)-[1,2,4]triazolo[1,5-a][1,3,5]triazin-5-yl)amino)ethyl)-N-(2-(4-methylpiperazin-1-yl)ethyl)benzamide], 0.033 µM.
For the compound `Nc1nc(NCCc2ccc3cnccc3c2)nc2nc(-c3ccco3)nn12` [Example 27, 2-(Furan-2-yl)-N5-(2-(isoquinolin-6-yl)ethyl)-[1,2,4]triazolo[1,5-a][1,3,5]triazine-5,7-diaminee], the IC50 was determined as 0.00908 µM.
The same measure for `Nc1nc(NCCc2ccc(-c3nn[nH]n3)cc2)nc2nc(-c3ccco3)nn12` [Example 125, N5-(4-(2H-Tetrazol-5-yl)phenethyl)-2-(furan-2-yl)-[1,2,4]triazolo[1,5-a][1,3,5]triazine-5,7-diamine]: 0.0145 µM.
Regarding `Nc1nc(NCCc2ccc(C(=O)N3CCCCC3)cc2)nc2nc(-c3ccco3)nn12` [Example 37, (4-(2-(7-Amino-2-(furan-2-yl)-[1,2,4]triazolo[1,5-a][1,3,5]triazin-5-ylamino)ethyl)-phenyl)(piperidin-1-yl)methanone], the IC50 is 0.006 µM.
In the case of `Nc1nc(NCCc2ccc(C(=O)N3CCC(F)(F)CC3)cc2)nc2nc(-c3ccco3)nn12` [Example 16, (4-(2-((7-Amino-2-(furan-2-yl)-[1,2,4]triazolo[1,5-a][1,3,5]triazin-5-yl)amino)ethyl)phenyl)-(4,4-difluoropiperidin-1-yl)methanone], the IC50 was found to be 0.024 µM.
The same measure for `NC(=O)c1ccc(CCNc2nc(N)n3nc(-c4ccco4)nc3n2)cc1` [Example 36, 4-(2-(7-Amino-2-(furan-2-yl)-[1,2,4]triazolo[1,5-a][1,3,5]triazin-5-ylamino)ethyl)benzamide]: 0.0133 µM; for `Nc1nc(NCCc2ccc(C(=O)N3CCc4ncccc4C3)cc2)nc2nc(-c3ccco3)nn12` [Example 45, (4-(2-(7-Amino-2-(furan-2-yl)-[1,2,4]triazolo[1,5-a][1,3,5]triazin-5-ylamino)ethyl)phenyl)-(7,8-dihydro-1,6-naphthyridin-6(5H)-yl)methanone]: 0.0274 µM; for `Nc1nc(NCCc2ccc(C(=O)N3CCC(F)CC3)cc2)nc2nc(-c3ccco3)nn12` [Example 17, (4-(2-((7-Amino-2-(furan-2-yl)-[1,2,4]triazolo[1,5-a][1,3,5]triazin-5-yl)amino)ethyl)phenyl)-(4-fluoropiperidin-1-yl)methanone]: 0.00754 µM.

(Values after US11858942B2, “Triazolotriazine derivatives as A2A receptor antagonists” (ZHEJIANG VIMGREEN PHARMACEUTICALS, LTD., priority 2018, dated 2024).)
